Entries after “also recorded” stand apart in the source; their conditions may differ.
How the values were obtained:
Assay type in all cases: cell-based
RIN-5AH cells [1] = experiment: Calcium influx by FACS analysis (Fluo-4 AM fluorescence); conditions: extracellular Ca2+ present, compound 12 at 5 µM
Experimental: Calcium influx was measured by FACS analysis, similar to protocols previously described (Brewis, I. A., journal of andrology 21, 238-249, doi:10.1002/j.1939-4640.2000.tb02101.x (2000); Vines, A., Cytometry Part A 77A, 1091-1097, doi:10.1002/cyto.a.20974 (2010); Schepers, E., Journal of Immunological Methods 348, 74-82, doi:http://dx.doi.org/10.1016/j.jim.2009.07.002 (2009)).
RIN-5AH cells (30,000 cells per well) were plated in 12 well plates and incubated overnight at 37°C and 5% CO2. Cells were stained with Fluo-4 AM (molecular probes, F14201) by using a 3µM stock solution prepared in HBSS with Ca2+ and Mg2+ (HBSS++) and with addition of a final amount of 0.02% Pluronic-F127 (molecular probes, P6867). Cells were incubated with 600ul of the dye/well for 1h at 37°C, in 5% CO2. They were washed 2x with Ca2+ and Mg2+ free HBSS (HBSS--) (Gibco, 14170) before moving to the next step of the protocol (see below).
Cells were trypsinized for three minutes at 37°C and 5% CO2. The cell suspension was then diluted by adding 1ml HBSS-- / well and centrifuged for 3 minutes at 1200 RPM. Cells were resuspended in 1 mL of HBSS++ or HBSS-- before starting the measurement. Base fluorescent signal was recorded for 30 seconds followed by treatment with the various compounds by quickly adding the compounds to the FACS analysis tubes, while acquisition was not interrupted (gaps). […] Samples were measured continuously for the desired time and all measurements were completed within 40 minutes. Unstained cells and stained cells in external buffer without Ca2+ and Mg2+ (HBSS--) were used as negative controls for the treatments. Data were acquired on BD-FACSCalibur and the visualizations were prepared by FlowJo software.

RIN-5AH cells [2] = experiment: Whole cell patch clamp (current clamp and voltage clamp)
Experimental: For the purpose of investigation of membrane potential changes and membrane depolarization that triggers and activate voltage dependent calcium channels in beta cells, whole cell patch clamp studies were conducted with the compounds of the present invention. RIN-5AH cells were trypsinized and suspended in medium. Cells were transferred into the recording chamber and allowed to settle down before beginning a slow perfusion with the external buffer (138.0 mM; NaCl; 5.6 mM KCl; 11.1 mM Glucose; 1.2 mM; MgCl2; 2.6 mM CaCl2; 10.0 mM HEPES). Cells were sealed and patched by the application of a gentle negative pressure. Holding membrane potential was set up to -70mV for voltage clamp experiments. After patching the cells, at least 10s of base signal was recorded for both voltage clamp and current clamp measurements. External stimulation of cells was done by using Picospritzer II instrument (Parker) with 5psi for 30s with the desired concentrations (50uM and 500uM for compound 12 and 500uM for glibenclamide as control). The total recording time was set to 1-4 minutes.

[3] = tested on: RIN-5AH insulinoma beta cell line; experiment: Insulin secretion (insulin ELISA of supernatants); conditions: for insulin secretion relative to a DMSO control, compared to previously reported quinoline compounds: 5 µM compound 12 vs 50 µM quinidine or chloroquine, 10 µM levofloxacin or gatifloxacin, Figure 1; for activation at 5 µM: RIN-5AH cells, treated in medium for 2 hours, read-out: AV_INSULIN (percent increase in insulin secretion over a DMSO control)
Experimental: Culture medium and supplements were purchased from Life Technologies. The RIN-5AH insulinoma beta cell line was cultured in RPMI 1640 supplemented with 10% FBS, 2 mM glutamine. All culture media contained 1x penicillin-streptomycin. Cells were grown on 15 cm culture plates at 37°C under 5% CO2 in high humidity atmosphere.
To determine the insulin level from the supernatants insulin ELISA kits from Millipore or Mercodia were used. RIN-5AH cells were seeded in 96 well or 12 well plates and grown overnight. RIN-5AH cells never reached more than 80% confluency before treatment. Cells were washed once with PBS before treatment. Cells were treated in medium for 2 hours and with 5 µM of insulin secretagogue according to the present invention, if not otherwise indicated. After treatment 100ul of supernatant was taken. Samples were assayed immediately or stored at -20°C until measurement. Dilutions were made if necessary and ELISA was subsequently performed according to the user's manual. Insulin secretion was normalized to cell number by MTT assay or to total protein amount by BCA assay (ThermoFisher Scientific, 23225). Plates were read on BioTrek Elx800 absorbance reader at 450 nm.
RIN-5AH beta cells were treated with 5 µM compound 12 or 50 µM quinidine or chloroquine according to the above described protocol (Example 1).

With `COc1cc(Nc2cc(C#N)nc3cc(F)ccc23)c(Cl)cc1Cl` [Compound 12, 4-(2,4-dichloro-5-methoxy-anilino)-7-fluoro-quinoline-2-carbonitrile] the “divalent calcium cation influx (Fluo-4 AM fluorescence by FACS)” value (from here on “divalent calcium cation influx”) (RIN-5AH cells [1]; Figure 2) was “induced divalent calcium cation influx”, the “divalent calcium cation influx” value (RIN-5AH cells [1]; Figure 2, listed as compound 12) was “induces divalent calcium cation influx; also recorded: induced Ca2+ influx” and the “time membrane potential is kept in depolarized state / returns to its initial value” (RIN-5AH cells [2]; current clamp) was over 240 s. For the same compound, the depolarization rate (RIN-5AH cells [2]; current clamp, 500 µM, Figure 3) was “dramatically increased”, the “shift in membrane potential in current clamp mode (CC)” value (RIN-5AH cells [2]; from -70mV, after puffs for 30s, Figures 3A and 3B) was -20 mV and the “onset of increase of inward current” value (RIN-5AH cells [2]; voltage clamp) was “immediately”. For the same compound, the “maximal inward current versus GBA treated cells” value (RIN-5AH cells [2]; voltage clamp, 50 µM compound 12 vs GBA) was “more than 5 fold”, the “difference of maximal inward ion current versus GBA” value (RIN-5AH cells [2]; voltage clamp, same concentrations of compound 12 and GBA (500 µM)) was “more than 10 fold” and the “duration of effect on inward current compared to GBA” value (RIN-5AH cells [2]; voltage clamp, Figure 4) was “longer lasting effect”. For the same compound, the “time until inward current flow returned back to baseline” value (RIN-5AH cells [2]; voltage clamp, Figure 4) was 3 min, the “insulin secretion relative to a DMSO control, compared to previously reported quinoline compounds” value [3] was “more effective” and the “insulin secretion relative to a DMSO control, compared to previously reported quinoline compounds” value ([3]; listed as compound 12) was “significantly superior activity”. It also gave an activation at 5 µM [3] of 85%.

For `COc1ccc(Cl)cc1C(=O)NCCc1ccc(S(=O)(=O)NC(=O)NC2CCCCC2)cc1` [GBA, glibenclamide, reference compound], the “divalent calcium cation influx” value (RIN-5AH cells [1]; Figure 2) was “caused calcium influx, however, with a delayed response”, the “time membrane potential is kept in depolarized state / returns to its initial value” (RIN-5AH cells [2]; current clamp) was 90 s and the “onset of increase of inward current” value (RIN-5AH cells [2]; voltage clamp) was “small delayed response”.

`COc1cc2c(Nc3ccc(Cl)cc3C(F)(F)F)cc(C#N)nc2cc1F` [Compound 13, 4-[4-chloro-2-(trifluoromethyl)anilino]-7-fluoro-6-methoxy-quinoline-2-carbonitrile] was tested, and the “divalent calcium cation influx” value (RIN-5AH cells [1]; Figure 2) was “induced divalent calcium cation influx; also recorded: induced Ca2+ influx” and the activation at 5 µM [3] was 83%.

Reference: patent EP3246028A1, “QUINOLINE COMPOUNDS FOR INCREASING INSULINE RELEASE” (Max-Planck-Gesellschaft zur Förderung der Wissenschaften …, priority 2016, dated 2017)
